Test results taken from patent US20090311237A1, “Combination therapy using a soluble hyaluronidase and a bisphosphonate” (priority 2008, published 2009).
Read-outs that look alike come from different tables or passages of the source.

Test: Phase 1 Stage 1 clinical pharmacokinetics of SC ZA co-administered with rHuPH20
Type: in vivo, human
Conditions: human, serum, sc; for AUC(0-t): AUC (0-48 h); for AUC(0-t) / Cmax / AUC(0-inf) / Tmax: ZA […] SC; for AUC(0-inf): read-out: AUC (0-inf); for Tmax: read-out: Tmax; for concentration at 0 h: 0 h post infusion; for concentration at 10 min: 10 min post infusion; for concentration at 0.5 h: 0.5 h post infusion; for concentration at 1 h: 1 h post infusion; for concentration at 2 h: 2 h post infusion; for concentration at 4 h: 4 h post infusion; for concentration at 6 h: 6 h post infusion; for concentration at 8 h: 8 h post infusion
Experimental: A pharmacokinetic study of zoledronic acid (ZA) co-administered with rHuPH20 in human subjects was conducted. The primary objective of the study was to determine the bioavailability of zoledronic acid dosed via subcutaneous (SC) co-administration with human recombinant hyaluronidase PH20 (rHuPH20). […] The patients were administered the prescribed dosage formulations as follows: Cohorts 1-5 were administered a single subcutaneous infusion in a dosage volume of 100 ml at a rate of 3 mL/min. […] The dosing solution is administered via needle or catheter into the SC space of the left anterior thigh (midway between the anterior iliac crest and the cephalad border of the patella). For cohorts 1-5, the dosing solutions were administered by a controlled rate infusion pump at approximately 3 mL/minute. […] The dosing solutions were administered by syringe push bolus injection. […] Serum concentration of ZA was determined using a qualified LC-MS-MS assay after derivatization with diazomethane (Zhu, L S et al. (2006) Rapid Commun. […] The assay range was from 2.0 to 400 ng/mL with a lower limit of quantitation (LLOQ) at 2.0 ng/mL. […] Non-compartmental analysis was used for derivation of primary and secondary pharmacokinetic (PK) parameters. […] Summary statistics (mean, standard deviation, and median) were calculated using JMP or Microsoft Excel.

[1] = Subj 21, inf 0.556 hr, PH20 24000 U
[2] = Subj 25, inf 0.549 hr, PH20 23736 U
[3] = Subj 31, inf 0.554 hr, PH20 23952 U
[4] = Subj 32, inf 0.556 hr, PH20 24000 U
[5] = Subj 51, inf 0.251 hr, PH20 6024 U
[6] = Subj 1, inf 0.554 hr, PH20 23928 U
[7] = Subj 8, inf 0.531 hr, PH20 22944 U
[8] = Subj 11, inf 0.554 hr, PH20 23928 U
[9] = Subj 16, inf 0.553 hr, PH20 23904 U
[10] = ZA 0.25 mg SC infusion + 24000 Units rHuPH20, individual subjects, read-out: Zoledronic Acid Concentration
[11] = ZA 0.25 mg SC infusion + 24000 Units rHuPH20, n=3, read-out: Mean Conc.
[12] = ZA 0.25 mg SC infusion + 24000 Units rHuPH20, n=3, read-out: Median Conc.
[13] = ZA 0.5 mg SC infusion + 24000 Units rHuPH20, individual subjects, read-out: Zoledronic Acid Concentration
[14] = ZA 0.5 mg SC infusion + 24000 Units rHuPH20, n=3, read-out: Mean Conc.
[15] = ZA 0.5 mg SC infusion + 24000 Units rHuPH20, n=3, read-out: Median Conc.

For O=P(O)(O)C(O)(Cn1ccnc1)P(=O)(O)O [ZA, 1-hydroxy-2-(1H-imidazol-1-yl)ethylidene-1,1-bisphosphonic acid], the AUC(0-t) (Subj 18, inf […], PH20 23304 U) was 69.8 ng·h/mL, the AUC(0-t) [1] was 66.1 ng·h/mL and the AUC(0-t) [2] was 115 ng·h/mL. The AUC(0-t) (Subj 26, inf […], PH20 23088 U) was 150 ng·h/mL, the AUC(0-t) [3] was 234 ng·h/mL and the AUC(0-t) [4] was 277 ng·h/mL. It also gave an AUC(0-t) [5] of 471 ng·h/mL, an AUC(0-t) (Subj 77, inf […], PH20 6000 U) of 618 ng·h/mL and a Cmax [6] of 7.75 ng/mL. The AUC(0-inf) [6] was 29.9 ng·h/mL, the Tmax [6] was 1.02 h and the Cmax [7] was 5.67 ng/mL. It also gave an AUC(0-inf) [7] of 32.6 ng·h/mL, a Tmax [7] of 1.41 h and a Cmax [8] of 6.84 ng/mL. The AUC(0-inf) [8] was 30.8 ng·h/mL, the Tmax [8] was 1.25 h and the Cmax [9] was 15.3 ng/mL. For the same molecule, the AUC(0-inf) [9] was 62.5 ng·h/mL, the Tmax [9] was 0.8 h and the Cmax (Subj 18, inf […], PH20 23304 U) was 17.1 ng/mL. For the same molecule, the AUC(0-inf) (Subj 18, inf […], PH20 23304 U) was 68.1 ng·h/mL, the Tmax (Subj 18, inf […], PH20 23304 U) was 1.29 h and the Cmax [1] was 14.2 ng/mL. It also gave an AUC(0-inf) [1] of 64.3 ng·h/mL, a Tmax [1] of 1.31 h and a Cmax [2] of 30.1 ng/mL. The AUC(0-inf) [2] was 117 ng·h/mL, the Tmax [2] was 1.3 h and the Cmax (Subj 26, inf […], PH20 23088 U) was 33.4 ng/mL. For the same molecule, the AUC(0-inf) (Subj 26, inf […], PH20 23088 U) was 153 ng·h/mL, the Tmax (Subj 26, inf […], PH20 23088 U) was 1.03 h and the Cmax [3] was 53 ng/mL. For the same molecule, the AUC(0-inf) [3] was 239 ng·h/mL, the Tmax [3] was 1.54 h and the Cmax [4] was 58.7 ng/mL. For the same molecule, the AUC(0-inf) [4] was 295 ng·h/mL, the Tmax [4] was 1.56 h and the Cmax [5] was 95.4 ng/mL. For the same molecule, the AUC(0-inf) [5] was 508 ng·h/mL, the Tmax [5] was 0.52 h and the Cmax (Subj 77, inf […], PH20 6000 U) was 147 ng/mL. The AUC(0-inf) (Subj 77, inf […], PH20 6000 U) was 678 ng·h/mL, the Tmax (Subj 77, inf […], PH20 6000 U) was 0.75 h and the concentration at 0 h [10] was 4.5 ng/mL. It also gave a concentration at 0 h [11] of 4.74 ng/mL, a concentration at 0 h [12] of 4.69 ng/mL and a concentration at 10 min [10] of 7.43 ng/mL. The concentration at 10 min [11] was 5.76 ng/mL, the concentration at 10 min [12] was 4.97 ng/mL and the concentration at 0.5 h [10] was 7.75 ng/mL. It also gave a concentration at 0.5 h [11] of 6.39 ng/mL, a concentration at 0.5 h [12] of 6.25 ng/mL and a concentration at 1 h [10] of 7.25 ng/mL. For the same molecule, the concentration at 1 h [11] was 6.51 ng/mL, the concentration at 1 h [12] was 6.6 ng/mL and the concentration at 2 h [10] was 5.42 ng/mL. It also gave a concentration at 2 h [11] of 5.06 ng/mL, a concentration at 2 h [12] of 5.42 ng/mL and a concentration at 4 h [10] of 2.56 ng/mL. It also gave a concentration at 4 h [11] of 3.02 ng/mL, a concentration at 4 h [12] of 3.06 ng/mL and a concentration at 6 h [10] of 1.2 ng/mL. For the same molecule, the concentration at 6 h [11] was 1.52 ng/mL, the concentration at 6 h [12] was 1.35 ng/mL and the concentration at 8 h [10] was 0.56 ng/mL. It also gave a concentration at 8 h [11] of 0.82 ng/mL, a concentration at 8 h [12] of 0.79 ng/mL and a concentration at 0 h [13] of 10.8 ng/mL. The concentration at 0 h [14] was 11.8 ng/mL, the concentration at 0 h [15] was 11.1 ng/mL and the concentration at 10 min [13] was 15 ng/mL. For the same molecule, the concentration at 10 min [14] was 15 ng/mL, the concentration at 10 min [15] was 15 ng/mL and the concentration at 0.5 h [13] was 13.8 ng/mL. For the same molecule, the concentration at 0.5 h [14] was 14.4 ng/mL, the concentration at 0.5 h [15] was 13.8 ng/mL and the concentration at 1 h [13] was 14.1 ng/mL. It also gave a concentration at 1 h [14] of 14.3 ng/mL, a concentration at 1 h [15] of 14.1 ng/mL and a concentration at 2 h [13] of 11.1 ng/mL. The concentration at 2 h [14] was 11.1 ng/mL, the concentration at 2 h [15] was 11.1 ng/mL and the concentration at 4 h [13] was 5.27 ng/mL. It also gave a concentration at 4 h [14] of 5.72 ng/mL, a concentration at 4 h [15] of 5.87 ng/mL and a concentration at 6 h [13] of 2.5 ng/mL. The concentration at 6 h [14] was 2.69 ng/mL.
